Measurements published in a melting point compilation (Tetko et al.; mined from patent text by program, amines drawn as free bases though some values may be those of a salt).

Row | Compound | melting point
1 | C=CC1CC2=CCCCC2C2CCC3(C)C(O)CCC3C12 (stereo not drawn) | 117 to 121 °C
2 | C/C(CCN1CCCC1c1ccc(Cl)c(Cl)c1)=N\O (stereo not drawn) | 145 to 147 °C
3 | O=C(O)CN(CC(=O)O)C(=O)c1cc(OCCCCCCCCCCCCOc2ccccc2)ccc1OCc1ccccc1 | 70 to 75 °C
4 | CC1Oc2c(C(=O)[NH+]([O-])C3CN4CCC3CC4)cc(Cl)cc2N(C)C1=O (stereo not drawn) | 188 to 190 °C
5 | CCOC(=O)c1cc(Cl)c(F)c(Cl)c1 | 59.5 to 60 °C
6 | O=S(=O)(Cl)C=Cc1ccc(C2CCCCC2)c(Br)c1 | 93 to 97 °C
7 | CCCCCCCCc1c(CCCCCCCC)c2cc(Br)sc2c2sc(Br)cc12 | 63.8 to 65.2 °C
8 | N#CCCC(C#N)CSc1ccc(Cl)c(Cl)c1 (stereo not drawn) | 53 to 55 °C
9 | NNc1nc(F)c(CC(F)(F)F)cc1Cl | 104 to 106 °C
10 | Fc1ccc2[nH]cc(C3=CCN(CC4COc5cccnc5O4)CC3)c2c1 (stereo not drawn) | 124 °C
11 | COCOc1ccccc1-c1cc(-c2cccc(C(=O)OC)c2OC)c(C#N)c(NC(=O)c2ccco2)n1 | 140 to 141 °C
12 | COc1ccc(Cl)cc1N1C(=O)CN(C)C1=S | 245 to 247 °C
13 | Fc1cccc(-c2ncc(-c3cnc(-c4ccccc4)[nH]3)cn2)c1 | 240 °C
14 | CCCCCCCCCCCCCCCCCCOc1ccc(C(C)=O)cc1 | 69 to 70 °C
15 | CC(=O)N1CCC(CCC(=O)c2ccc3c(c2)CCN3)CC1 | 145 to 146 °C
16 | O=C(c1cc(-c2ccccc2)c(=O)n2c1-c1ccccc1C2)N1CC(O)C1 | 238 to 242 °C
17 | CCOC(=O)C1COc2ccc(Cl)c(Cl)c2O1 (stereo not drawn) | 92 to 94 °C
18 | O[C@H]1[C@H](O)CS[C@H]1n1cnc2c(Cl)nc(Cl)nc21 | 198 to 200 °C
19 | O=C(O)c1c[nH]c(Sc2cc(Cl)c(Cl)cc2Cl)c1 | 210 to 215 °C
20 | O=C1CCCCCCCCCCC(=O)OCCC1 | 33 °C
21 | COc1ccc(C(=O)c2ccccc2)cc1OC1CCCC1 | 73.5 to 75 °C
22 | O=C1NCCOc2cc([N+](=O)[O-])ccc21 | 208 to 209 °C
23 | O=CNCc1nc2ccccc2o1 | 98 to 99 °C

Row | Compound | melting point
24 | O=C(O)C(=O)Nc1coc2ccccc2c1=O | 195 to 197 °C
25 | Nc1nc2c(s1)CC(CN1CCN(c3ccccn3)CC1)CC2 (stereo not drawn) | 177 to 179 °C
26 | C=CC#CCn1c(-c2ccccc2)nc(C(F)(F)F)c(CC)c1=O | 104 to 106 °C
27 | Fc1ccccc1-c1cn([C@H]2CN3CCC2CC3)nn1 | 94 °C
28 | CNc1nc(-c2cccc(-c3cnc4ccccc4c3)c2)c2cc(OC)c(OC)cc2n1 | 218 to 220 °C
29 | O=C(/C=C1\CCc2ccc(F)cc21)NC1CC1 | 124 to 127 °C
30 | COc1cc2c(cc1O)CCC1C3=CCC(O)C3(C)CCC21 (stereo not drawn) | 169 to 171 °C
31 | CC(C)(C)c1nc(C(N)=S)nc(C(C)(C)C)c1O | 169 to 171 °C
32 | CCOc1cc2c(c(F)c1F)OC(C1CCC(CC)CC1)CC2 (stereo not drawn) | 90 °C
33 | CCn1cc(C(=O)O)c(=O)c2cc(Cl)c(N3CCNCC3)cc21 | 228 to 232 °C
34 | N#CC1C2OCC(O2)C(OCc2ccccc2)C1O (stereo not drawn) | 152 to 156 °C
35 | C#CC(C)Oc1cc(Cc2cnc(N)nc2N)cc(OC)c1OC (stereo not drawn) | 153 to 155 °C
36 | CCc1cccc2c1CCNC2=O | 123 to 126 °C
37 | Cc1c(C(N)=O)oc2nn(C)c(C)c12 | 148 to 150 °C
38 | CN(c1cc(OCCCS(C)(=O)=O)cc2cc(C3=NCC(CN4CCN(S(C)(=O)=O)CC4)S3)[nH]c12)S(=O)(=O)c1ccccn1 (stereo not drawn) | 151 to 153 °C
39 | CS(=O)(=O)n1c(C#N)nc2cc3c(cc21)OC(F)(Cl)C(F)(Cl)O3 (stereo not drawn) | 123 to 126 °C
40 | COC(C(=O)O)c1ccsc1 (stereo not drawn) | 80 to 82 °C
41 | Cc1oc(-c2ccccc2)nc1COc1ccc(C=CC=O)cc1C(F)(F)F | 138 to 139 °C
42 | O=C(CO)c1cccc(Br)c1 | 100 to 101 °C
43 | Cc1nc2c(Cl)cc(Cl)cc2c(=O)n1C1CCC(=O)NC1=O (stereo not drawn) | 238 to 240 °C
44 | COc1ccc(N2CCN(CCC3OCCc4cc(C(=O)N(C)C)ccc43)CC2)cc1 (stereo not drawn) | 94 to 96 °C
45 | CC12CC(=O)C3C(CCC4CC=CCC43C)C1CCC2C#N (stereo not drawn) | 189 to 191 °C
46 | CCOC(=O)C(C)(C)N1COC(C)=C(I)C1=O | 85 to 87 °C

The next lines start with the values.

Row | melting point | Compound
47 | 62 to 65 °C | OC1CCCC1Oc1ccc(Oc2ccccc2)cc1 (stereo not drawn)
48 | 216 to 219 °C | Cc1cc2cc(CN3CCCC3)cnc2cc1NC(=O)c1ccc(-c2ccc(C(F)(F)F)cc2)cc1
49 | 60 °C | Nc1cccc(-c2ccc(CCN3CCN(C(=O)Nc4ccccc4)CC3)cc2)n1
50 | 85 to 87 °C | O=C1c2ccccc2C(=O)N1CCCCI
51 | 167 °C | COC1CSC2=C(SC1)C(OC(=O)Oc1ccccc1)N(c1ccc(Cl)cn1)C2=O (stereo not drawn)
52 | 90 to 93 °C | NCCc1ccc(CCNS(=O)(=O)c2ccc(Cl)cc2)cc1
53 | 140 °C | COCCOc1ccc(CCNC(=O)/C=C/c2cccs2)cc1S(N)(=O)=O
54 | 171 to 172 °C | CC(=O)Nc1ccc(CCCON2CCC(C(=O)c3nc4ccccc4s3)CC2)cc1
55 | 131 to 133 °C | COc1ccc2c(c1)C(=O)C(=Cc1ccccc1)C2
56 | 202 to 204 °C | Cc1c(S(=O)(=O)c2ccccc2)cc(C(C)(C)C)c(O)c1C(=O)Nc1ccc([N+](=O)[O-])cc1Cl
57 | 158 to 160 °C | CCOC(=O)c1c(CN=[N+]=[N-])cccc1S(=O)(=O)NC(=O)Nc1nc(OC)cc(OC)n1
58 | 211 °C | COc1ccccc1NC(=O)CN1C(=O)c2ccccc2C1=O
59 | 77 to 80 °C | CC(=O)OCCS(=O)(=O)C(F)(F)C(O)(Cn1cncn1)c1ccc(F)cc1F (stereo not drawn)
60 | 100 to 101 °C | CCC(=O)NCCc1c[nH]c2cc(Cl)c(OC)cc12
61 | 192 to 193 °C | CC(C)c1ccc(OC(Cc2ccc(OCCNC(=O)c3ccc(-c4ccc(F)cc4)cc3)cc2)C(=O)O)cc1 (stereo not drawn)
62 | 300 to 302 °C | CCCCCCc1ccc(C=Cc2cc3cc4ccccc4cc3s2)cc1
63 | 87 °C | Cc1ccc2cc(-c3cccs3)ccc2n1
64 | 217 to 219 °C | COc1ccc(C(N)=O)c(OC)c1-c1ccc(C[C@H](NC(=O)c2c(Cl)cc(NC(N)=O)cc2Cl)C(=O)O)cc1
65 | 115 to 116 °C | COCCNC(=O)c1cccc(-c2cccc3c(F)c(Cc4cccc(C(F)(F)F)c4)sc23)c1

Row | melting point | Compound
66 | 186 °C | CCCOc1ccc(-c2ccc(=O)[nH]n2)cc1OC
67 | 185 to 189 °C | CC(C)(SCc1ccccn1)C(NS(=O)(=O)c1ccc(Oc2ccc(-c3ccoc3)cc2)cc1)C(=O)O (stereo not drawn)
68 | 209 to 211 °C | O=C(Nc1ccc2cc(CN3CCCC3)ccc2c1)N1CCC(c2ccc(Cl)cc2)CC1
69 | 227 to 230 °C | Cc1c(Sc2ccccc2S(C)(=O)=O)c2cc(NS(C)(=O)=O)ccc2n1CC(=O)O
70 | 143 to 144 °C | CCCNC(=O)CCCc1ccc2c(c1)c(Cc1ccc(C(=O)O)cc1OC)cn2CCC
71 | 139 to 140 °C | Cc1oc(-c2ccccc2)nc1CCOc1ccc(CCC(N)=O)cc1
72 | 91 to 94 °C | CC(C)C(C)(C)C(=O)C(Cc1ccc(Cl)cc1)n1cncn1 (stereo not drawn)
73 | 144 to 146 °C | O=C=Nc1ccc(NCc2ccc(F)c(Cl)c2)c(C(F)(F)F)c1
74 | 102 to 110 °C | C=CCN1C(=C)C(=O)N[C@@H](Cc2ccccc2)C1=O
75 | 152 to 154 °C | Cc1noc(NS(=O)(=O)c2ccsc2COc2ccc3c(c2Cl)OCO3)c1Br
76 | 159 to 162 °C | Cc1nc2cnccc2n1-c1ccc(C2=Nc3cc(Cl)c(Cl)cc3N3CCN=C3C2)cc1
77 | 89 to 92 °C | Nc1nc2ccccc2c2c1ncn2CCCCNC(=O)Oc1cccc2ccccc12
78 | 68 to 70 °C | Fc1cccc(Cl)c1-c1nc(F)n(-c2ccccc2C(F)(F)F)n1
79 | 84 to 85 °C | CCCCC(=O)Nc1c(C(=O)OC)cc(Cl)cc1[N+](=O)[O-]
80 | 121 to 123 °C | COc1ccc(C(=C/C=C/C(=O)Oc2ccc([N+](=O)[O-])cc2)c2ccc(OC)cc2)cc1
81 | 134 to 136 °C | O=C(O)CCC(=NO)c1ccc(-c2ccc(C(F)(F)F)cc2)cc1
82 | 120 to 122 °C | NC(=O)C(CCC(=O)O)N1C(=O)c2cccc(NCc3ccco3)c2C1=O (stereo not drawn)
83 | 106 °C | Clc1ccc2c(c1)CCc1cccc3c1C2CN=C3 (stereo not drawn)
84 | > 250 °C | CNS(=O)(=O)c1ccc(NN=C2C(=O)Nc3ccc(C(N)=O)cc32)cc1

Row | melting point | Compound
85 | 205 °C | Cc1nn(C)cc1C(=O)Nc1cc(Oc2ccc3nc(NC(=O)C4CC4)cn3n2)ccc1F
86 | 236 to 238 °C | CN1C(=O)C2=C(c3ccccc3)N(C)C(=O)C2=C1c1ccccc1
87 | 99 to 101 °C | COc1cccc(OCCCCC(=O)O)c1C=O
88 | 235 to 242 °C | Cc1cc(-n2ccc(=O)[nH]c2=O)cc(Cl)c1S(=O)(=O)c1ccc(Cl)cc1
89 | 119 to 121 °C | CCCCCc1cccc2c1NC(=O)C2=O
90 | 240 to 242 °C | CNC(=O)OCc1cnc2c(NC(=O)c3c(Cl)cccc3Cl)cccc2c1-n1ccnc1
91 | 164 to 166 °C | CS(=O)c1ccc(-c2nc3n(c2-c2ccncc2)CCC3)cc1 (stereo not drawn)
92 | 172 to 178 °C | Cc1ccc(C)c2c1Cc1c(O)cccc1C2=O
93 | > 285 °C | CCNC(=O)Cn1c(=O)c(=O)[nH]c2ccc3ccc(-n4c(C)ccc4C)cc3c21
94 | 109 to 112 °C | CCCCCS(=O)(=O)NC(=O)/C=C/c1cc(OC(C)C)nn1Cc1ccc(Cl)cc1Cl
95 | 90 to 91 °C | CNC(=O)CCc1ccc(F)cc1F
96 | 120 to 121 °C | Cc1ccc2c(c1)c(C=O)c(Cl)n2C
97 | 176 to 177 °C | O=c1ccn(-c2cccnc2)nc1-c1ccnn1-c1ccccc1
98 | 150 to 154 °C | CNc1cccc(C#CCCn2nc3ccccc3n2)n1
99 | 104 °C | CS(=O)(=O)c1cccc(-c2ccc(C3C(CCC(O)c4ccc(F)cc4)C(=O)N3c3ccc(F)cc3)cc2)c1 (stereo not drawn)
100 | 131 to 132 °C | Oc1cccc(C#Cc2ccc(C(F)(F)F)cc2)c1
101 | 204 to 205 °C | COc1cc(COc2nn(-c3ccccc3)cc2/C=C/c2csc(CO)n2)ccc1OCc1nc(-c2ccc(CC(=O)O)cc2)oc1C
102 | 174 to 176 °C | O=[N+]([O-])c1c(-c2ccc(Cl)cc2)[nH]c(C(F)(F)F)c1-c1csc(Br)c1
103 | 213 °C | NC1=C(c2ccc(O)cc2)C(=O)c2ccc(O)cc21
